In article PMC8745253, “Affinity and Specificity for Binding to Glycosaminoglycans Can Be Tuned by Adapting Peptide Length and Sequence” (International Journal of Molecular Sciences, 2021):

Experiments:
[1] = cited from earlier work
Source text: (§1) Chemokines are small proteins that have two main interaction partners: chemokine receptors, which are G protein-coupled receptors (GPCRs), and GAGs. The binding of chemokines to GAGs enables the formation of a chemokine concentration gradient, which is indispensable for leukocyte migration. Interfering with the interactions between GAGs and chemokines can be a useful therapeutic strategy to inhibit inflammation. The chemokine CXCL9 binds to CXCR3 and is characterized by a highly positively charged COOH-terminal tail. A CXCL9-derived peptide, CXCL9(74-103), consisting ...

[2] = cited from earlier work; remark: listed apart in the source
Source text: No significant difference in affinity for HS was detected between the long (KKKQQK) and short (KKQK) GAG-binding motifs (Figure 2). […] This is consistent with the report that peptides containing multiple copies of the GAG-binding motifs XBBXBX and XBBBXXBX had higher affinity for heparin [30]. It is important to point out that CXCL9(74-103) had the ...

[3] = tested on: cellular GAGs on HS+ (pgsB-618 clone 19) and HS- (pgsB-618 clone 16) CHO cells; test: Binding of TAMRA-labeled peptides to cellular GAGs, flow cytometry; assay type: cell-based, Chinese hamster; details: 0.24 nmol TAMRA-labeled peptide; for Binding to HS+ CHO cells compared with HS- CHO cells (MFI): 1 × 10^5 cells, 30 min on ice, Wilcoxon test; for Binding capacity for cellular GAGs (MFI ([HS+]–[HS−])), comparison of the peptides: n ≥ 7, Mann–Whitney test
Protocol: The binding of four different TAMRA-labeled peptides (KKAK-2mer, KKQK-3mer, KKKQQK-2mer and CXCL9(74-103)) to cellular GAGs on pgsB-618 clone 16 (HS^− CHO cells) and pgsB-618 clone 19 cells (HS^+ CHO cells) was assessed using flow cytometry. Since each peptide contains exactly one TAMRA-group connected to the N-terminus, this allows us to quantify the peptides by their fluorescence or absorbance.
(§2) First, the medium was discarded, the cells were washed with PBS and were detached with trypsin/EDTA at 37 °C. Subsequently, the cells were resuspended in medium and left at room temperature for 45 min, and afterwards on ice for 15 min. After centrifugation at 177 g and 4 °C for 7 min, the pellet was resuspended in PBS and the cells were kept on ice. For each condition, 1 × 10^5 cells in 100 μL PBS were used and 4.7% (v/v) FcR blocking reagent and 0.06% (v/v) Zombie Aqua fixable viability dye were added to the cells. Following incubation in the dark at room temperature for 20 min, a wash step with flow cytometry buffer was performed. Afterwards, 0.24 nmol TAMRA-labeled peptide was added to the cells. After incubation in the dark on ice for 30 min, a wash step with flow cytometry buffer was performed and, subsequently, the cells were fixed with 0.4% (v/v) formaldehyde in flow cytometry buffer and kept at 4 °C. Flow cytometric analysis was performed within the following 24 h using a BD LSRFortessa X-20 flow cytometer (BD Biosciences; Franklin Lakes, NJ, USA), and the results were analyzed using FlowJo software (BD Biosciences).
(§3) Flow cytometry data (Figure 7C and Figure S2) are represented as median. […] In the next step, either a Mann–Whitney test (for unpaired data) or a Wilcoxon test (for paired data) was used to compare the groups. Statistical analysis was performed using GraphPad Prism 8.3.0 software (GraphPad Software; San Diego, CA, USA).

[4] = tested on: cellular GAGs on HS+ and HS- CHO cells; test: Binding of TAMRA-labeled peptides to cellular GAGs in the presence of added soluble GAGs, flow cytometry; assay type: cell-based, Chinese hamster; details: versus no GAG, Kruskal–Wallis test, n ≥ 6; for Effect of added soluble HA on binding of the peptide to cellular GAGs (MFI ([HS+]–[HS−])): 0.24 nmol peptide with 0.03-3 μg HA (70–120 kDa); for Effect of added soluble HS on binding of the peptide to cellular GAGs (MFI ([HS+]–[HS−])): 0.24 nmol peptide with 0.03-3 μg HS; for Effect of added soluble heparin on binding of the peptide to cellular GAGs (MFI ([HS+]–[HS−])): 0.24 nmol peptide with 0.03-3 μg heparin
Protocol: as §2
Similarly, the binding of three TAMRA-labeled peptides (KKQK-3mer, KKKQQK-2mer and CXCL9(74-103)) to cellular GAGs on pgsB-618 clone 16 (HS^− CHO cells) and pgsB-618 clone 19 cells (HS^+ CHO cells) in the presence of added GAGs was assessed using flow cytometry. In this experiment, different doses (0.03, 0.1, 0.3, 1 or 3 μg) of heparin (heparin low in calcium; Iduron; Cheshire, UK), HS (GAG HS01 BN1; Iduron; Cheshire, UK) or HA (70–120 kDa; HA sodium salt 96144; Sigma-Aldrich; St. Louis, MO, USA) were added to the cells, simultaneously with 0.24 nmol of TAMRA-labeled peptide (vide supra).
as §3

CXCR3 = details: cited from earlier work
Source text: as §1

Molecule	Binding to HS+ CHO cells compared with HS- CHO cells (MFI) [3]	Binding capacity for cellular GAGs (MFI ([HS+]–[HS−])), comparison of the peptides [3]	Effect of added soluble HA on binding of the peptide to cellular GAGs (MFI ([HS+]–[HS−])) [4]	Effect of added soluble HS on binding of the peptide to cellular GAGs (MFI ([HS+]–[HS−])) [4]	Effect of added soluble heparin on binding of the peptide to cellular GAGs (MFI ([HS+]–[HS−])) [4]	other results
CC(=O)NC(CCCNC(=N)N)C(N)=O (stereo not drawn) [acetyl-Arg-amide]						Tighter binding to heparin than the corresponding acetyl-Lys-amide [1]: approximately 2.5 times
AAARRARAAAARAKA [modified serglycin peptide in which Ala residues replaced all non-basic amino acids]						Decrease in heparin-binding affinity compared with native peptide YPARRARYQWVRCKP ([2]; Ala residues replaced all non-basic amino acids): 350 fold
* KKKQQKQSQSKKKQQKTT [KKKQQK-2mer]	bound significantly better to HS^+ CHO cells	significantly higher (p < 0.05) in comparison with the binding capacity of the KKAK-2mer	no significant differences	no significant differences	no significant differences	
* KKAKASASKKAKTT [KKAK-2mer]	bound significantly better to HS^+ CHO cells	lowest				
* KKKQKNGKKHQKKKVLKVRKSQRSRQKKTT [CXCL9(74-103), chemokine-derived peptide, the 30 COOH-terminal amino acids of the chemokine CXCL9, TAMRA-labeled]	bound significantly better to HS^+ CHO cells	significantly higher (p < 0.0001) compared with that of the three other peptides	no significant differences	statistically significant reduction of binding	statistically significant reduction of binding	Binding to and signaling through CXCR3 (CXCR3): lacks the capacity to bind to, and signal through, CXCR3
* KKQKQSQSKKQKQSQSKKQKTT [KKQK-3mer]	bound significantly better to HS^+ CHO cells	significantly higher (p < 0.05) in comparison with the binding capacity of the KKAK-2mer	no significant differences	no significant differences	no significant differences	
YPARRARYQWVRCKP						Heparin-binding affinity ([2]; fragment of native mouse serglycin core protein with BBXB motif): significant heparin-binding affinity
